Where two headings read alike, the source gives them in different places.
Assays:
HSV1 E377 = experiment: microbe, parasite or virus in culture; format: cell-based, Herpes Simplex Virus 1
Procedure: (§1) Screening Assays for HSV-1, HSV-2, CMV, and VZV
(§2) Cells. Human foreskin fibroblast (HFF) cells were prepared from human foreskin tissue. The tissue was incubated at 4° C. for 4 h in Clinical Medium and then placed in phosphate buffered saline (PBS) to remove the red blood cells, and resuspended in trypsin/EDTA solution. The tissue suspension was incubated at 37° C. and gently agitated to disperse the cells, which were collected by centrifugation. Cells were resuspended in 4 ml Clinical Medium and placed in a flask and incubated at 37° C. in a humidified CO2 incubator for 24 h. The media was then replaced with fresh Clinical Medium and the cell growth was monitored daily until a confluent monolayer has formed. The HFF cells were then expanded through serial passages in standard growth medium of MEM with Earl's salts supplemented with 10% FBS and antibiotics. The cells were passaged routinely and used for assays at or below passage 10.
(§3) Primary Cytopathic Effect (CPE) Reduction Assay. Low passage (3-10) HFF cells were trypsinized, counted, and seeded into 96 well tissue culture plates in 0.1 ml of MEM supplemented with 10% FBS. The cells were then incubated for 24 h at 37° C. The media was then removed and 100 μl of MEM containing 2% FBS was added to all but the first row. In the first row, 125 μl of media containing the experimental drug was added in triplicate wells. Media alone was added to both cell and virus control wells. The drug in the first row of wells was then diluted serially 1:5 throughout the remaining. The plates were then incubated for 60 min and 100 μl of a virus suspension was added to each well, excluding cell control wells which received 100 μl of MEM. The plates were then incubated at 37° C. in a CO2 incubator for three days for HSV-1 and HSV-2, 10 days for VZV, or 14 d for CMV. After the incubation period, media was aspirated and the cells stained with crystal violet in formalin for 4 h. The stain was then removed and the plates were rinsed until all excess stain was removed. The plates were allowed to dry for 24 h and the amount of CPE in each row determined using a BioTek Multiplate Autoreader. EC50 and CC50 values were determined by comparing drug treated and untreated cells using a computer program.

HSV2 G = experiment: Primary CPE reduction assay in HFF cells, HSV2 G; format: cell-based, Herpes Simplex Virus 2
Procedure: as §1, §2, §3

hCMV1 AD169 = experiment: Primary CPE reduction assay in HFF cells, hCMV AD169; format: cell-based, human Cytomegalovirus
Procedure: as §1, §2, §3

hCMV2 GDGRK17 = experiment: Primary CPE reduction assay in HFF cells, hCMV GDGRK17; format: cell-based, human Cytomegalovirus; conditions: for EC50: Human betaherpesvirus 5, HFF, read-out: EC50 (50% reduction in the Cytopathic Effect of the virus); for TI (therapeutic index derived from EC50/CC50): hCMV2 GDGRK17, HFF cells
Procedure: as §1, §2, §3

mCMV Smith = experiment: Primary CPE reduction assay, mCMV Smith; format: cell-based, murine Cytomegalovirus; conditions: for EC50: Murid betaherpesvirus 1, read-out: EC50 (50% reduction in the Cytopathic Effect of the virus)
VZV Ellen = experiment: microbe, parasite or virus in culture; format: cell-based, Vericella Zoster Virus
Procedure: as §1, §2, §3

[1] = test system: Human Cytomegalovirus Strain AD169; experiment: Additional study versus Human Cytomegalovirus Strain AD169 in HFF cells (procedures of US 2011/0263535 A1); format: cell-based
Procedure: Additional studies in HFF cells were performed using the procedures as outlined in US Patent Application Publication No: 2011/0263535 A1 with compounds of 120, 121, and 122. Each of the compounds were tested versus Human Cytomegalovirus Strain AD169 in HFF cells using ganciclovir as a comparator.

HSV1 strain DM2.1 = experiment: Primary CPE reduction assay in HFF cells, HSV1 strain DM2.1; format: cell-based, Herpes Simplex Virus 1
Procedure: as §1, §2
Primary Cytopathic Effect (CPE) Reduction Assay. Low passage (3-10) HFF cells were trypsinized, counted, and seeded into 96 well tissue culture plates in 0.1 ml of MEM supplemented with 10% FBS. […] The plates were allowed to dry for 24 h and the amount of CPE in each row determined using a BioTek Multiplate Autoreader. EC50 and CC50 values were determined by comparing drug treated and untreated cells using a computer program.

[2] = Human alphaherpesvirus 1, read-out: EC50 (50% reduction in the Cytopathic Effect of the virus), HSV1 E377, HFF cells
[3] = Human alphaherpesvirus 2, read-out: EC50 (50% reduction in the Cytopathic Effect of the virus), HSV2 G, HFF cells
[4] = Human betaherpesvirus 5, read-out: EC50 (50% reduction in the Cytopathic Effect of the virus), hCMV1 AD169, HFF cells
[5] = Human alphaherpesvirus 1, HFF, read-out: EC50 (50% reduction in the Cytopathic Effect of the virus)
[6] = Human alphaherpesvirus 2, HFF, read-out: EC50 (50% reduction in the Cytopathic Effect of the virus)
[7] = Human betaherpesvirus 5, AD169, HFF, read-out: EC50 (50% reduction in the Cytopathic Effect of the virus)
[8] = Human alphaherpesvirus 3, HFF, read-out: EC50 (50% reduction in the Cytopathic Effect of the virus)
[9] = Human Cytomegalovirus Strain AD169 in HFF cells
[10] = Human betaherpesvirus 5, AD169, HFF

Row | Compound | EC50 (HSV1 E377; [2]) [µM] | TI (therapeutic index derived from EC50/CC50) (HSV1 E377; HSV1 E377, HFF cells) | TI (therapeutic index derived from CC50/EC50) (HSV2 G; HSV2 G, HFF cells) | EC50 (hCMV1 AD169; [4]) [µM] | TI (therapeutic index derived from EC50/CC50) (hCMV1 AD169; hCMV1 AD169, HFF cells) | EC50 (hCMV2 GDGRK17) [µM] | TI (therapeutic index derived from EC50/CC50) (hCMV2 GDGRK17) | TI (therapeutic index derived from EC50/CC50) (mCMV Smith; mCMV Smith) | TI (therapeutic index derived from EC50/CC50) (VZV Ellen; VZV Ellen, HFF cells) | EC50 (HSV1 E377; [5]) [µM] | EC50 (HSV2 G; [6]) [µM] | EC50 (hCMV1 AD169; [7]) [µM] | EC50 (mCMV Smith) [µM] | EC50 (VZV Ellen; [8]) [µM] | Therapeutic index EC90/HFF Cytotoxicity 50% [1, 9] | EC90 [1, 10] [µM] | other results
1 | Nc1nc2c(ncn2COCCO)c(=O)[nH]1 [Acyclovir, reference compound] | 0.96 | – | – | – | – | – | – | – | – | – | – | – | – | – | – | – | EC50 (HSV2 G; [3]): 0.38 µM
2 | CC1(CCCCCCCCCCCCS(=O)(=O)CCCOP(=O)(O)CO[C@H](CO)Cn2cnc(N)cc2=O)COC1 [Compound 110, Ammonium 3-((12-(3-methyloxetan-3-yl)dodecyl)sulfonyl)propyl Hydrogen ((((S)-1-(4-amino-6-oxopyrimidin-1(6H)-yl)-3-hydroxypropan-2-yl)oxy)methyl)phosphonate] | 0.16 | >313 | >1250 | 0.01 | 184 | < 0.0003 | >3125 | 2213 | 225 | – | – | – | – | – | – | – | EC50 (HSV2 G; [3]): 0.04 µM; EC50 (mCMV Smith; mCMV Smith): < 0.0003 µM; EC50 (VZV Ellen; Human alphaherpesvirus 3, read-out: EC50 (50% reduction in the Cytopathic Effect of the virus), VZV Ellen, HFF cells): 0.01 µM
3 | CCOC(=O)P(=O)(OCCCS(=O)(=O)CCCCC1CCC1)OCCCS(=O)(=O)CCCCC1CCC1 [Compound 119, Ethyl (bis(3-((4-cyclobutylbutyl)sulfonyl)propoxy)phosphoryl)formate] | – | – | – | > 30 | <3 | – | – | – | – | – | – | – | – | – | – | – | –
4 | N.Nc1ccn(C[C@@H](CO)OCP(=O)(O)OCCCS(=O)(=O)CCCCCCCCCCC2CCC2)c(=O)n1 [Compound 120, Ammonium 3-((10-cyclobutyldecyl)sulfonyl)propyl hydrogen ((((S)-1-(4-amino-2-oxopyrimidin-1(2H)-yl)-3-hydroxypropan-2-yl)oxy)methyl)phosphonate] | – | 149 | >3950 | – | 74 | < 0.0003 | >2772 | >3125 | 25 | 0.07 | 0.01 | 0.008 | < 0.0003 | 0.02 | >37 | < 0.02 | –
5 | N.Nc1ccn(C[C@@H](CO)OCP(=O)(O)OCCCS(=O)(=O)CCCCCCCCCCCCC2CCC2)c(=O)n1 [Compound 121, Ammonium 3-((12-cyclobutyldodecyl)sulfonyl)propyl hydrogen ((((S)-1-(4-amino-2-oxopyrimidin-1(2H)-yl)-3-hydroxypropan-2-yl)oxy)methyl)phosphonate] | – | 1159 | 498 | – | >19 | < 0.0003 | >2753 | >3125 | 23 | 0.01 | 0.01 | < 0.01 | < 0.0003 | 0.01 | >15 | < 0.02 | –
6 | N.Nc1ccn(C[C@@H](CO)OCP(=O)(O)OCCCS(=O)(=O)CCCCCCCCCCCCCC2CCC2)c(=O)n1 [Compound 122, Ammonium 3-((13-cyclobutyltridecyl)sulfonyl)propyl hydrogen ((((S)-1-(4-amino-2-oxopyrimidin-1(2H)-yl)-3-hydroxypropan-2-yl)oxy)methyl)phosphonate] | – | 469 | >14 | – | >19 | < 0.0003 | >2209 | >3125 | 31 | 0.02 | 0.14 | < 0.01 | < 0.0003 | 0.007 | >13 | < 0.02 | –
7 | N.Nc1ccn(C[C@@H](CO)OCP(=O)(O)OCCCS(=O)(=O)CCCCCCCCCCCCCCC2CCC2)c(=O)n1 [Compound 123, Ammonium 3-((14-cyclobutyltetradecyl)sulfonyl)propyl (S)-(((1-(4-amino-2-oxopyrimidin-1(2H)-yl)-3-hydroxypropan-2-yl)oxy)methyl)phosphonate] | – | – | – | – | >5 | – | – | – | – | – | – | < 0.05 | – | – | – | – | TI (therapeutic index derived from EC50/CC50) (HSV1 strain DM2.1; HSV1 strain DM2.1 (footnote a), HFF cells): >142^a; EC50 (HSV1 strain DM2.1; [5]): < 0.05 µM
8 | CCOC(=O)P(=O)(OCCCS(=O)(=O)CCCCCCCC1(C)COC1)OCCCS(=O)(=O)CCCCCCCC1(C)COC1 [Compound 124, Ethyl (bis(3-((7-(3-methyloxetan-3-yl)heptyl)sulfonyl)-propoxy)phosphoryl)formate] | > 150 | 1 | – | > 150 | 1 | – | – | – | – | – | – | – | – | – | – | – | –
9 | CCCCCCCCCCCCCCCCCCS(=O)(=O)CCCOP(=O)(OCCCS(=O)(=O)CCCCCCCCCCCCCCCCCC)C(=O)OCC [Compound 125, Ethyl (bis(3-(octadecylsulfonyl)propoxy)phosphoryl)formate] | – | – | – | 132 | >1 | – | – | – | – | – | – | – | – | – | – | – | –
10 | Nc1nc(O)c2ncn(COC(CO)CO)c2n1 [Ganciclovir, reference compound] | – | – | – | 1.63 | >92 | 0.15 | >1030 | >882 | – | – | – | – | – | – | 1 | – | EC50 (mCMV Smith; mCMV Smith): 0.17 µM; EC90 ([1]; Human betaherpesvirus 5, Human Cytomegalovirus Strain AD169 in HFF cells, read-out: EC90): > 150 µM

— patent US12397058B2, “Metabolically stable prodrugs” (TSRL, Inc., priority 2018, dated 2025)
